Consider one compound from patent publication US11597724B2, “Herbicidally active 3-phenylisoxazoline-5-carboxamides of tetrahydro and dihydrofuran carboxylic acids and esters” (Bayer Aktiengesellschaft, priority 2017, dated 2023).

What all share (assay type): in vivo
One test has as its system Abutilon theophrasti. In words: Pre-emergence herbicidal activity against ABUTH. The following applies: dosage 80 g/ha. The source says: 1. Pre-Emergence Herbicidal Action and Crop Plant Compatibility Seeds of monocotyledonous and dicotyledonous weed plants and crop plants are placed in plastic or wood fiber pots and covered with soil. The compounds of the invention, formulated in the form of wettable powders (WP) or as emulsion concentrates (EC), are then applied onto the surface of the covering soil as aqueous suspension or emulsion with addition of 0.5% additive at a water application rate of 600 l/ha (converted). After the treatment, the pots are placed in a greenhouse and kept under good growth conditions for the trial plants. After about 3 weeks, the effect of the preparations is scored visually in comparison with untreated controls as percentages. For example, 100% activity=the plants have died, 0% activity=like control plants. ABUTH: Abutilon theophrasti ALOMY: Alopecurus myosuroides

The test system of a further test is Alopecurus myosuroides. In words: Post-emergence herbicidal activity against ALOMY. The following applies: Alopecurus myosuroides, 504 h, dosage 320 g/ha, rated about 3 weeks after treatment. In a few lines:
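Greenhouse-grown plants treated at one-leaf stage, 2 to 3 weeks after sowing, with WP or EC formulations sprayed as aqueous suspension/emulsion plus 0.5% additive at 600 l/ha. Activity rated visually about 3 weeks later versus untreated controls (100% = plants dead, 0% = like control).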

In a further test the test system is Echinochloa crus-galli. Briefly: Post-emergence herbicidal activity against ECHCG. The following applies: Echinochloa crus-galli, 504 h, dosage 320 g/ha, rated about 3 weeks after treatment. As for the experimental part: (§1) ECHCG: Echinochloa crus-galli HORMU: Hordeum murinum 2. Post-Emergence Herbicidal Action and Crop Plant Compatibility Seeds of monocotyledonous and dicotyledonous weeds and crop plants are placed in sandy loam in plastic or wood-fiber pots, covered with soil and cultivated in a greenhouse under controlled growth conditions. 2 to 3 weeks after sowing, the test plants are treated at the one-leaf stage. The compounds of the invention, formulated in the form of wettable powders (WP) or as emulsion concentrates (EC), are then sprayed onto the green parts of the plants as aqueous suspension or emulsion with addition of 0.5% additive at a water application rate of 600 l/ha (converted). After the test plants had been kept in the greenhouse under optimum growth conditions for about 3 weeks, the activity of the preparations is rated visually in comparison to untreated controls. For example, 100% activity=the plants have died, 0% activity=like control plants.

In a further test the test system is Setaria viridis. In words: Post-emergence herbicidal activity against SETVI. The following applies: Setaria viridis, 504 h, dosage 320 g/ha, rated about 3 weeks after treatment. As for the experimental part: as §1, with “POLCO: Polygonum convolvulus SETVI: Setaria viridis” for “ECHCG: Echinochloa crus-galli HORMU: Hordeum murinum”
For a further test, the system named is Pharbitis purpurea. In words: Post-emergence herbicidal activity against PHBPU. Particulars: Ipomoea purpurea, 504 h, dosage 320 g/ha, rated about 3 weeks after treatment. In outline:
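Greenhouse-grown plants sprayed post-emergence at the one-leaf stage, 2 to 3 weeks after sowing, with WP or EC formulations plus 0.5% additive at 600 l/ha water. Activity rated visually after about 3 weeks versus untreated controls (100% = plants dead, 0% = like control).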

The next test has as its system Polygonum convolvulus. In words: Post-emergence herbicidal activity against POLCO. The following applies: Fallopia convolvulus, 504 h, dosage 320 g/ha, rated about 3 weeks after treatment. In a few lines:
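Greenhouse weeds in sandy loam were sprayed at the one-leaf stage, 2–3 weeks after sowing, with WP or EC formulations plus 0.5% additive at 600 l/ha water. About 3 weeks later, damage was rated visually against untreated controls, where 100% means plants dead and 0% means like control.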

The test system of the next test is Viola tricolor. In words: Post-emergence herbicidal activity against VIOTR. Particulars: Viola tricolor, 504 h, dosage 320 g/ha, rated about 3 weeks after treatment. As for the experimental part:
as §1, with “VIOTR: Viola tricolor” for “ECHCG: Echinochloa crus-galli HORMU: Hordeum murinum”

The subject of the next test is Veronica persica. Briefly: Post-emergence herbicidal activity against VERPE. The following applies: Veronica persica, 504 h, dosage 320 g/ha. In a few lines:
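Greenhouse plants treated at one-leaf stage, 2–3 weeks after sowing, by spraying WP or EC formulations with 0.5% additive at 600 l/ha water. Visual rating about 3 weeks later versus untreated controls (100% = plants dead, 0% = like controls).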

Test [1] can be described thus: Post-emergence treatment, summary over harmful plants. The following applies: 504 h, application rate of 0.32 kg of active substance or less per hectare, read-out: herbicidal action, post-emergence treatment (very good herbicidal activity). As for the experimental part: 2. Post-Emergence Herbicidal Action and Crop Plant Compatibility
as §1, with “Seeds” for “ECHCG: Echinochloa crus-galli HORMU: Hordeum murinum 2. Post-Emergence Herbicidal Action and Crop Plant Compatibility Seeds”
As shown by the results, compounds according to the invention such as, for example, the compounds No. I-35 and other compounds from the tables (for example I-28, I-38, I-01, I-19, I-36, I-29, I-32, I-11, I-12, I-37, I-06, I-09, I-33, I-34, I-13, I-04, I-26, I-21, I-30, I-05, I-03, I-20, I-27, I-14, I-10, I-23, I-07, I-25, I-02, I-08, I-24, I-41, I-42, I-43, I-44, I-46, I-49, I-54, I-55, I-56) have, when used for post-emergence treatment, very good herbicidal activity (80% to 100% herbicidal action) against harmful plants such as Abutilon theophrasti, Alopecurus myosuroides, Amaranthus retroflexus, Avena fatua, Echinochloa crus-galli, Hordeum murinum, Lolium rigidum, Pharbitis purpurea, Polygonum convolvulus, Setaria viridis, Stellaria media, Veronica persica and Viola tricolor at an application rate of 0.32 kg of active substance or less per hectare.

With `COC(=O)[C@H]1C[C@@H](NC(=O)C2(OC)CC(c3cc(Cl)cc(Cl)c3)=NO2)CO1` (relative stereo) [I-02, methyl cis-4-[[3-(3,5-dichlorophenyl)-5-methoxy-4H-isoxazole-5-carbonyl]amino]tetrahydrofuran-2-carboxylate], the “Pre-emergence herbicidal activity against ABUTH in %” value with Abutilon theophrasti amounted to 100%. Also, the pest or weed control at 320 g/ha was found to be 80% in the test on Alopecurus myosuroides; 90% with Echinochloa crus-galli; 80% in the test with Setaria viridis; 90% with Pharbitis purpurea; 90% with Polygonum convolvulus; 80% in the test on Viola tricolor. In addition, the pest or weed control at 320 g/ha in the test on Veronica persica is 80%; in test [1], 80 to 100%.
